Where two headings read alike, the source gives them in different places.
Tested on: ATF4 translation (ISR pathway activation)
Test: ATF4 Nano Luciferase reporter integrated stress response (ISR) assay in H4 ATF4-NLuc (clone 17) cells
Assay type: cell-based, human
Excerpt: Cellular stress leads to activation of the integrated stress response pathway through one of four eukaryotic initiation factor 2α kinases and halts global translation, while allowing for the translation of select transcripts like ATF4 (activating transcription factor 4) that are important for the response to cellular stress. During normal conditions, small open reading frames (ORFs) in the 5′ UTR of ATF4 occupy the ribosome and prevent translation of the coding sequence of ATF4. During stress conditions however, the ribosome scans past these upstream ORFs and preferentially begins translation at the coding sequence of ATF4. In this way, the translation, and thus protein level of ATF4 is a readout of ISR pathway activation. Thus, a fusion of the uORFs and the beginning of the coding sequence of ATF to a common cellular reporter like nano-luciferase allows for a sensitive and high-throughput readout of ISR pathway activity.
Compounds as provided herein were tested in the following assay. The ATF4 Nano Luciferase reporter was constructed by fusing the human full length 5′ untranslated region (5′-UTR) and a small portion of the coding sequence of the ATF4 gene upstream of the Nano Luciferase (NLuc) coding sequence lacking it's start codon. Specifically, nucleotides +1 through +364 (relative to the transcriptional start site) of ATF4 transcript variant 2 (NCBI NM_182810.2) flanked 5′ by EcoRI and 3′ by BamHI restriction enzyme sites were synthesized and cloned into the EcoRI/BamHI cloning sites of pLVX-EF1a-IRES-Puro lentivirus vector (Clontech). […]. H4 cells were selected with […] Puromycin, and clonal cell lines generated by limiting dilution. We utilized this cell line to generate an integrated stress response (ISR) assay to evaluate the activity of ISR pathway inhibitors via luminescence readout. The H4 ATF4-NLuc (clone 17) cell line is plated at a density of […] in 96-well or 384-well respectively in DMEM+10% fetal bovine serum. 24-hours later test compounds diluted in dimethyl sulfoxide (DMSO) are added for 30 minutes at 37 degree Celsius, followed by ISR pathway activation with 50 um sodium arsenite aqueous solution for 6 additional hours. Nano Glo luciferase reagent (N1150, Promega) is added according to manufacturer instructions and the luminescence signal (corresponding to the level of ATF4 translation and thus ISR pathway activation) is read with a standard plate reader with luminescence detection capabilities.
In the table below, activity of the tested compounds is provided in Table 3 as follows: +++=IC50<1 μM; ++=IC50 1-10 μM; +=IC50>10 μM.

[1] = Homo sapiens, 0.5 h, H4 ATF4-NLuc (clone 17) cells, compounds 30 minutes at 37 degree Celsius, then 50 um sodium arsenite for 6 additional hours, luminescence readout, read-out: IC50
[2] = H4 ATF4-NLuc (clone 17) cells, compounds 30 minutes at 37 degree Celsius, then 50 um sodium arsenite for 6 additional hours, luminescence readout, read-out: IC50

SMILES | IC50 [1] [nM] | further results
O=C(COc1ccc(Cl)c(F)c1)NC1CC2(C1)CC(c1nnc(C3CC(OC(F)(F)F)C3)o1)C2 (stereo not drawn) [Example 33, 2-(4-chloro-3-fluoro-phenoxy)-N46-[5-[3-cis-(trifluoromethoxy)cyclobutyl]-1,3,4-oxadiazol-2-yl]spiro[3.3]heptan-2-yl)acetamide] | < 1000 | –
O=C(COc1ccc(Cl)c(F)c1)NC1CC2(C1)CN(C(=O)COC1CC(n3nccn3)C1)C2 (stereo not drawn) [Example 18, 2-(4-chloro-3-fluoro-phenoxy)-N-[2-[2-[3-(triazol-2-yl)cyclobutoxy]acetyl]-2-azaspiro[3.3]heptan-6-yl]acetamide] | < 1000 | –
CO[C@H]1CN(CCOC2CC(OC(F)(F)F)C2)CCC1NC(=O)COc1ccc(Cl)c(F)c1 (stereo partly drawn) [Example 48, 2-(4-chloro-3-fluoro-phenoxy)-N-[cis-3-methoxy-1-[2-[3-cis-(trifluoromethoxy)cyclobutoxy]ethyl]-4-piperidyl]acetamide] | < 1000 | –
O=C(COc1ccc(Cl)c(F)c1)NC12CC(NC(=O)COC3CC(C(F)(F)F)C3)(C1)C2 (single isomer, unassigned) [12 (second eluting isomer), 2-(4-chloro-3-fluorophenoxy)-N-(3-(2-(3-(trifluoromethyl)cyclobutoxy)acetamido)bicyclo[1.1.1]pentan-1-yl)acetamide] | – | IC50 [2]: < 1000 nM
O=C(COc1ccc(Cl)cc1)NC12CC(NC(=O)COC3CC(C(F)(F)F)C3)(C1)C2 (single isomer, unassigned) [3 (second eluting isomer), 2-(4-chlorophenoxy)-N-(3-(2-(3-(trifluoromethyl)cyclobutoxy)acetamido)bicyclo[1.1.1]pentan-1-yl)acetamide] | – | IC50 [2]: < 1000 nM
O=C(COC1CC(C(F)(F)F)C1)NC12CC(NC(=O)c3ccc4cc(C(F)(F)F)ccc4n3)(C1)C2 (stereo not drawn) [Example 67, 6-(trifluoromethyl)-N-(3-(2-(3-(trifluoromethyl)cyclobutoxy)acetamido)bicyclo[1.1.1]pentan-1-yl)quinoline-2-carboxamide] | < 1000 | –
O=C(COC1CC(OC(F)(F)F)C1)NC12CC(NC(=O)c3ccc4cc(F)ccc4n3)(C1)C2 (stereo not drawn) [Example 66, 6-fluoro-N-[1-[[2-[3-cis-(trifluoromethoxy)cyclobutoxy]acetyl]amino]-3-bicyclo[1.1.1]pentanyl]quinoline-2-carboxamide] | < 1000 | –
O=C(COc1ccc(Cl)c(F)c1)NC12CC(NC(=O)COC3CC(F)C3)(C1)C2 (stereo not drawn) [Example 9] | < 1000 | –
O=C(COc1ccc(Cl)cc1)N[C@H]1CC[C@H](c2nnc(C3CC(OC(F)(F)F)C3)o2)CC1 (stereo partly drawn) [Example 29, 2-(4-chlorophenoxy)-N-[4-[5-[3-cis-(trifluoromethoxy)cyclobutyl]-1,3,4-oxadiazol-2-yl]cyclohexyl]acetamide] | – | IC50 (Homo sapiens, 0.5 h): < 1000 nM
O=C(COC1CC(OC(F)(F)F)C1)NC1CCN(c2nnc(-c3ccc(Cl)cc3)o2)CC1 (stereo not drawn) [Example 44, N-[1-[5-(4-chlorophenyl)-1,3,4-oxadiazol-2-yl]-4-piperidyl]-2-[3-cis-(trifluoromethoxy)cyclobutoxy]acetamide] | – | IC50 (Homo sapiens, 0.5 h): < 1000 nM
O=C(COC1CC(OC(F)(F)F)C1)NC12CC(NC(=O)COC3CC(OC(F)(F)F)C3)(C1)C2 (stereo not drawn) [Example 39, 2-[3-cis-(trifluoromethoxy)cyclobutoxy]-N-[3-[[2-[3-cis-(trifluoromethoxy)cyclobutoxy]acetyl]amino]-1-bicyclo[1.1.1]pentanyl]acetamide] | < 1000 | –
O=C(COc1ccc(Cl)c(F)c1)NC1CC(OCCOC2CC(OC(F)(F)F)C2)C1 (single isomer, unassigned) [42 (isomer 2), 2-(4-chloro-3-fluoro-phenoxy)-N-[3-[2-[3-cis-(trifluoromethoxy)cyclobutoxy]ethoxy]-trans-cyclobutyl]acetamide] | – | IC50 [2]: < 1000 nM
O=C(COc1ccc(Cl)cc1)NC1CC2CN(c3cnn([C@H]4C[C@@H](OC(F)(F)F)C4)c3)CC2C1 (stereo partly drawn) [Example 61, 2-(4-chlorophenoxy)-N-(2-(1-(3-cis-(trifluoromethoxy)cyclobutyl)-1H-pyrazol-4-yl)octahydrocyclopenta[c]pyrrol-5-yl)acetamide] | – | IC50 (Homo sapiens, 0.5 h): > 10000 nM
O=C(COc1ccc(Cl)c(F)c1)NC1C[C@H]2COC[C@@H](C1)N2c1cnn(C2CC(OC(F)(F)F)C2)c1 (stereo partly drawn) [Example 50, 2-(4-chloro-3-fluoro-phenoxy)-N-[(1S,5R,7r)-9-[1-[3-cis-(trifluoromethoxy)cyclobutyl]pyrazol-4-yl]-3-oxa-9-azabicyclo[3.3.1]nonan-7-yl]acetamide] | – | IC50 (Homo sapiens, 0.5 h): < 1000 nM
O=C(COC1CC(OC(F)(F)F)C1)NC12CC(NC(=O)c3ccc4cc(F)c(F)cc4n3)(C1)C2 (stereo not drawn) [Example 69, 6,7-difluoro-N-(3-(2-(3-cis-(trifluoromethoxy)cyclobutoxy)acetamido)bicyclo[1.1.1]pentan-1-yl)quinoline-2-carboxamide] | < 1000 | –
O=C(COc1ccc(Cl)c(F)c1)NC1CCN(C(=O)COC2CC(OC(F)(F)F)C2)CC1 (stereo not drawn) [Example 62, 2-(4-chloro-3-fluoro-phenoxy)-N-[1-[2-[3-cis-(trifluoromethoxy)cyclobutoxy]acetyl]-4-piperidyl]acetamide] | < 1000 | –
COC1CC(OCC(=O)NC23CC(NC(=O)COc4ccc(Cl)c(F)c4)(C2)C3)C1 (stereo not drawn) [Example 35, 2-(4-chloro-3-fluoro-phenoxy)-N-[3-[[2-(3-cis-methoxycyclobutoxy)acetyl]amino]-1-bicyclo[1.1.1]pentanyl]acetamide] | < 1000 | –
O=C(COc1ccc(Cl)c(F)c1)NC1CC2(CCN(C(=O)COC3CCC3)CC2)C1 [Example 15, 2-(4-chloro-3-fluoro-phenoxy)-N-[7-[2-(cyclobutoxy)acetyl]-7-azaspiro[3.5]nonan-2-yl]acetamide] | < 1000 | –
O=C(COC1CC(F)C1)NC12CC(NC(=O)c3ccc4cc(C(F)(F)F)ccc4n3)(C1)C2 (stereo not drawn) [Example 53, N-[1-[[2-(3-trans-fluorocyclobutoxy)acetyl]amino]-3-bicyclo[1.1.1]pentanyl]-6-(trifluoromethyl)quinoline-2-carboxamide] | < 1000 | –
O=C(COC1CC(OC(F)(F)F)C1)N[C@H]1CC[C@H](c2nnc(C3CC(OC(F)(F)F)C3)o2)CC1 (stereo partly drawn) [Example 30, 2-[3-cis-(trifluoromethoxy)cyclobutoxy]-N-[4-[5-[3-cis-(trifluoromethoxy)cyclobutyl]-1,3,4-oxadiazol-2-yl]cyclohexyl]acetamide] | < 1000 | –
O=C(COc1cccc(Cl)c1F)NC12CC(NC(=O)COC3CCC3)(C1)C2 [Example 13, 2-(3-chloro-2-fluoro-phenoxy)-N-[3-[[2-(cyclobutoxy)acetyl]amino]-1-bicyclo[1.1.1]pentanyl]acetamide] | – | IC50 (Homo sapiens, 0.5 h): 1000 to 10000 nM
O=C(COC1CC(OC(F)(F)F)C1)NC1CN(c2nnc(COc3ccc(Cl)c(F)c3)o2)C1 (stereo not drawn) [Example 22, N-[1-[5-[(4-chloro-3-fluoro-phenoxy)methyl]-1,3,4-oxadiazol-2-yl]azetidin-3-yl]-2-[3-cis-(trifluoromethoxy)cyclobutoxy]acetamide] | < 1000 | –
O=C(COc1ccc(Cl)c(F)c1)NC1CCN(c2ccnc(C3CC(OC(F)(F)F)C3)n2)CC1 [58 (cis isomer), 2-(4-chloro-3-fluorophenoxy)-N-(1-(2-(3-cis-(trifluoromethoxy)cyclobutyl)pyrimidin-4-yl)piperidin-4-yl)acetamide] | < 1000 | –
O=C(COc1ccc(Cl)c(F)c1)NC1CCN(c2cnn(C3CC(OC(F)(F)F)C3)c2)CC1 (stereo not drawn) [Example 46, 2-(4-chloro-3-fluorophenoxy)-N-(1-(1-(3-cis-(trifluoromethoxy)cyclobutyl)-1H-pyrazol-4-yl)piperidin-4-yl)acetamide] | < 1000 | –
O=C(COC1CCN(CC(F)(F)F)C1)NC12CC(NC(=O)c3ccc4cc(C(F)(F)F)ccc4n3)(C1)C2 (stereo not drawn) [Example 73] | – | IC50 (Homo sapiens, 0.5 h): < 1000 nM
O=C(COc1ccc(Cl)c(F)c1)NC12CC(NC(=O)COC3CC(C(F)(F)F)C3)(C1)C2 (single isomer, unassigned) [12 (first eluting isomer), 2-(4-chloro-3-fluorophenoxy)-N-(3-(2-(3-(trifluoromethyl)cyclobutoxy)acetamido)bicyclo[1.1.1]pentan-1-yl)acetamide] | < 1000 | –
O=C(COc1ccc(Cl)c(F)c1)N[C@@H]1C[C@@H]2CN(C(=O)COC3CCC3)C[C@@H]2C1 [Example 41, 2-(4-chloro-3-fluorophenoxy)-N-((3aR,5r,6aS)-2-(2-cyclobutoxyacetyl)octahydrocyclopenta[c]pyrrol-5-yl)acetamide] | < 1000 | –
